From patent US20220408724A1, “METHOD FOR CONTROLLING METABOLISM OF BRANCHED FATTY ACID” (KAO CORPORATION, priority 2019, published 2022)

Legend:
Type in all cases: cell-based
[1] = system: Escherichia coli (NBRC3972); assay: Suppression of metabolism of 14-methylhexadecanoic acid on cotton fabric
Procedure: (§1) A methanol solution in which 14-methylhexadecanoic acid (SIGMA-ALDRICH) was dissolved was added dropwise to 3 cm×3 cm pieces of sterilized plain-weave cotton fabric to make it adhered to the fabric. The adhesion amount of 14-methylhexadecanoic acid was set to 10 μg per piece of the plain-weave cotton fabric (100 μg/fabric g).
(§2) Further, a methanol solution in which each metabolism controlling agent was dissolved was prepared and added dropwise to the fabric to which 14-methylhexadecanoic acid adhered, and it was thereafter dried for an hour. This fabric was placed in a sterilized screw tube bottle No. 3 (Maruemu Corporation) and 100 μl of the bacterial suspension was inoculated thereto, and culture was carried out under 37° C.; conditions for 21 hours.
(§3) 3 ml of methanol was added to the screw tube bottle after culture, and extraction was carried out under ultrasonic irradiation for 30 minutes (20° C.). The extraction liquid was mixed with a (trimethylsilyl)diazomethane hexane solution (FUJIFILM Wako Pure Chemical Corporation) at 9:1 (volume ratio) and left overnight under room temperature and dark place conditions. After that, 14-methylhexadecanoic acid remaining on the fabric was quantified by GC. The quantification conditions for GC are as follows. • GC: Agilent 7890A • GC column: Agilent DB-1 30 m×250 μm×0.25 μm • Temperature rise condition: 50° C. (held for 3 minutes)-(10° C./min)-300° C. (held for 5 minutes) • Sample injection volume: 1 μl • Split ratio: 1:12 • Detector: FID
(§4) The residual amount of 14-methylhexadecanoic acid after culture on the fabric to which the metabolism controlling agent was added was quantified, and the ratio of the residual amount to that of 14-methylhexadecanoic acid in the case of adding no metabolism controlling agent (control) was calculated as a metabolism suppression rate (%). The higher a numerical value thereof is, the more the metabolism is suppressed. Note that the metabolism suppression rate was determined by the following formula:
(§5) Metabolism suppression rate(%)=[1−(100−A)/(100−B)]×100 • A: residual amount of 14-methylhexadecanoic acid of example or comparative example (μg/fabric g) • B: residual amount of 14-methylhexadecanoic acid of control (μg/fabric g)
(§6) The metabolism of 14-methylhexadecanoic acid by bacteria of the genus Escherichia (Escherichia coli) was tested in the same manner as in example 1.
(§7) In this example, Escherichia coli (NBRC3972) was used as a microorganism.
(§8) Further, in this example, a bacterial suspension of 10^6 (CFU/ml) prepared by using an NB liquid medium diluted to 1/10 with ion exchange water was used as a bacterial suspension.
(§9) Note that, in this example, C12OH (1-dodecanol) was used as the metabolism controlling agent.

[2] = system: Escherichia coli (NBRC3972); assay: Suppression of metabolite 4-methylhexanoic acid from 14-methylhexadecanoic acid
Procedure: (§10) After culture on fabric prepared in the same manner as in the above (1), 3 ml of methanol was added, and extraction was carried out under ultrasonic irradiation for 30 minutes (20° C.). The extraction liquid was mixed with (a 1000 ppm methanol solution of) an ADAM reagent of Funakoshi Co., Ltd. at 1:1 (volume ratio) and left overnight under room temperature and dark place conditions. After that, 4-methyl-3-hexenoic acid as a metabolite from 14-methylhexadecanoic acid was quantified by HPLC. The quantification conditions are as follows.
(§11) The production amount of 4-methyl-3-hexenoic acid after culture on the fabric to which each metabolism controlling agent was added was quantified, and the ratio of the production amount to that of 4-methyl-3-hexenoic acid in the case of adding no metabolism controlling agent (control) was calculated as a metabolite suppression rate (%). The higher a numerical value thereof is, the more the metabolism is suppressed. Note that the metabolite suppression rate was determined by the following formula:
(§12) Metabolite suppression rate(%)=100×[(D−C)/D] • C: production amount of metabolite of example or comparative example (μg/fabric g) • D: production amount of metabolite of control (μg/fabric g)
as §6, §7, §8
(§13) Further, in this example, 4-methylhexanoic acid was quantified as a metabolite from 14-methylhexadecanoic acid, and the metabolite suppression rate was determined in the same manner as in example 1.
as §9

[3] = system: Escherichia coli (NBRC3972); assay: Measurement of viable bacterial count on fabric
Procedure: (§14) After culture on fabric prepared in the same manner as in the above (1), 9 mL of an LP diluent (manufactured by NIHON PHARMACEUTICAL CO., LTD.) was added, and the extraction of the bacteria was carried out under ultrasound for 10 minutes. The extraction liquid was poured and mixed to an SCD-LP agar medium (NIHON PHARMACEUTICAL CO., LTD.), and culture was thereafter carried out at 37° C.; for a day. The number of colonies obtained on each piece of the fabric was counted, and a common logarithm value thereof was measured as the viable bacterial count. […] In addition, the […], the more the viable bacterial count of the microorganism is maintained.
as §6, §7, §8, §9

Rhodotorula mucilaginosa [4] = assay: Suppression of metabolism of 14-methylhexadecanoic acid on cotton fabric; conditions: agent 250 μg/fabric g
Procedure: as §1, §2, §3, §4, §5
The metabolism of 14-methylhexadecanoic acid by yeast of the genus Rhodotorula was tested in the same manner as in example 1.
In this example, Rhodotorula mucilaginosa (strain isolated from clothing) was used as a microorganism.
Further, in this example, the bacteria were precultured under conditions of a PDA agar medium (Difco), 30° C.; and 48 hours.
Further, in this example, a bacterial suspension of 10^7 (CFU/ml) prepared by using a PDB liquid medium (Difco) diluted to 1/10 with ion exchange water was used as a bacterial suspension.

Rhodotorula mucilaginosa [5] = assay: Suppression of metabolite 4-methylhexanoic acid from 14-methylhexadecanoic acid; conditions: agent 250 μg/fabric g
Procedure: The extraction liquid was mixed with (a 1000 ppm methanol solution of) an ADAM reagent of Funakoshi Co., Ltd. at 1:1 (volume ratio) and left overnight under room temperature and dark place conditions. […] The quantification conditions are as follows. […] The higher a numerical value thereof is, the more the metabolism is suppressed. Note that the metabolite suppression rate was determined by the following formula: […] In this example, Rhodotorula mucilaginosa (strain isolated from clothing) was used as a microorganism. Further, in this example, the bacteria were precultured under conditions of a PDA agar medium (Difco), 30° C.; and 48 hours. Further, in this example, a bacterial suspension of 10^7 (CFU/ml) prepared by using a PDB liquid medium (Difco) diluted to 1/10 with ion exchange water was used as a bacterial suspension.

Micrococcus aloeverae [6] = assay: Suppression of metabolism of 14-methylhexadecanoic acid on cotton fabric; conditions: agent 250 μg/fabric g
Procedure: as §1, §2, §3, §4, §5
(§15) The metabolism of 14-methylhexadecanoic acid by bacteria of the genus Micrococcus was tested in the same manner as in example 1.
(§16) In this example, Micrococcus aloeverae (strain isolated from clothing) was used as a microorganism.
(§17) Further, in this example, a bacterial suspension of 10^7 (CFU/ml) prepared by using an SCD liquid medium (NIHON PHARMACEUTICAL CO., LTD.) diluted to 1/10 with ion exchange water was used as a bacterial suspension.
as §9

Micrococcus aloeverae [7] = assay: Suppression of metabolite 2-methylbutanoic acid from 14-methylhexadecanoic acid; conditions: agent 250 μg/fabric g
Procedure: as §10, §11, §12, §15, §16, §17
Further, in this example, 2-methylbutanoic acid was quantified as a metabolite from 14-methylhexadecanoic acid, and the metabolite suppression rate was determined in the same manner as in example 1.
as §9

Micrococcus aloeverae [8] = assay: Measurement of viable bacterial count on fabric; conditions: agent 250 μg/fabric g
Procedure: as §14, §15, §16, §17, §9

Staphylococcus aureus [9] = assay: Suppression of metabolism of 14-methylhexadecanoic acid on cotton fabric; conditions: agent 250 μg/fabric g
Procedure: as §1, §2, §3, §4, §5
(§18) The metabolism of 14-methylhexadecanoic acid by bacteria of the genus Staphylococcus (Staphylococcus aureus) was tested in the same manner as in example 1.
(§19) In this example, Staphylococcus aureus (strain isolated from clothing) was used as a microorganism.
(§20) Further, in this example, a bacterial suspension of 10^7 (CFU/ml) prepared by using an NB liquid medium diluted to 1/10 with ion exchange water was used as a bacterial suspension.

Staphylococcus aureus [10] = assay: Suppression of metabolite 4-methylhexanoic acid from 14-methylhexadecanoic acid; conditions: agent 250 μg/fabric g
Procedure: as §10, §11, §12, §18, §19, §20, §13, §9

Staphylococcus aureus [11] = assay: Measurement of viable bacterial count on fabric; conditions: agent 250 μg/fabric g
Procedure: as §14, §18, §19, §20, §9

Row | SMILES | Metabolism suppression rate (%) ([1]; agent 500 μg/fabric g) | Metabolism suppression rate (%) ([1]; agent 1000 μg/fabric g) | Metabolite suppression rate (%) ([2]; agent 500 μg/fabric g) | Metabolite suppression rate (%) ([2]; agent 1000 μg/fabric g) | Bacterial count (Log (cfu/fabric cm^2)) ([3]; agent 500 μg/fabric g) | Bacterial count (Log (cfu/fabric cm^2)) ([3]; agent 1000 μg/fabric g) | Metabolism suppression rate (%) (Rhodotorula mucilaginosa [4]) | Metabolite suppression rate (%) (Rhodotorula mucilaginosa [5]) | Metabolism suppression rate (%) (Micrococcus aloeverae [6]) | Metabolite suppression rate (%) (Micrococcus aloeverae [7]) | Bacterial count (Log (cfu/fabric cm^2)) (Micrococcus aloeverae [8]) | Metabolism suppression rate (%) (Staphylococcus aureus [9]) | Metabolite suppression rate (%) (Staphylococcus aureus [10]) | Bacterial count (Log (cfu/fabric cm^2)) (Staphylococcus aureus [11])
1 | CCCCCCCCCO [Example C9OH, 1-nonyl alcohol] | 13 | 25 | 31 | 33 | 6.5 Log (cfu/fabric cm^2) | 6.3 Log (cfu/fabric cm^2) | 14 | 21 |  |  |  |  |  | 
2 | CCCCCCCCCCO [Example C10OH, 1-decanol] | 16 | 38 | 42 | 75 | 6.5 Log (cfu/fabric cm^2) | 6.4 Log (cfu/fabric cm^2) | 51 | 46 | 33 | 51 | 7.0 Log (cfu/fabric cm^2) | 16 | 35 | 5.5 Log (cfu/fabric cm^2)
3 | CCCCCCCCCCCCOCCO [Example C12E1, ethylene glycol mono-1-dodecyl ether] |  |  |  |  |  |  | 24 | 41 |  |  |  |  |  | 
4 | CCCCCCCCCCCCOCCOCCO [Example C12E2, diethylene glycol mono-1-dodecyl ether, reference compound] | −2 |  | −2 |  | 6.5 Log (cfu/fabric cm^2) |  |  |  | −11 | 8 | 6.8 Log (cfu/fabric cm^2) | 7 |  | 
5 | CCCCCCCCCCCCOCCOCCOCCOCCOCCO [Example C12E5, pentaethylene glycol mono-1-dodecyl ether, reference compound] |  |  |  |  |  |  |  |  | −3 | 6 | 6.6 Log (cfu/fabric cm^2) |  |  | 
6 | CCCCCCCCCCCCCO [Example C13OH, 1-tridecanol] |  |  |  |  |  |  |  |  | 41 | 59 | 6.7 Log (cfu/fabric cm^2) |  |  | 
7 | CCCCCCCCCCCCCCO [Example C14OH, 1-tetradecanol] | 27 | 67 | 47 | 77 | 6.7 Log (cfu/fabric cm^2) | 6.5 Log (cfu/fabric cm^2) | 14 | 45 |  |  |  | 42 | 53 | 5.6 Log (cfu/fabric cm^2)
8 | CCCCCCCCCCCCCCCCO [Example C16OH, 1-hexadecanol] |  | 18 |  | 27 |  | 6.6 Log (cfu/fabric cm^2) | 24 | 38 |  |  |  | 16 | 20 | 6.1 Log (cfu/fabric cm^2)
9 | CCCCCCCCCCCCCCCCCCO [Example C18OH, 1-octadecanol, reference compound] | −15 | 3 |  | 0 | 6.2 Log (cfu/fabric cm^2) | 5.9 Log (cfu/fabric cm^2) | 2 |  | −7 | 1 | 6.8 Log (cfu/fabric cm^2) | −1 |  | 5.6 Log (cfu/fabric cm^2)
